# Measured values: patent US20070128217A1 (priority 2003, published 2007)
# Experiments:
# [1] = test system: control sera (pooled serum of ten healthy LUMC hospital workers; commercial negative donor pooled serum from the Dutch bloodbank); type: binding, human; design: Binding of Control serum LUMC to linear peptides / Binding of Control serum Blood-bank to linear peptides / Binding of Control serum LUMC to looped peptides / Binding of Control Serum Blood-Bank to Looped peptides / Binding of Control serum LUMC to linear peptides of the protein M of SARS-CoV Urbani / Binding of Control serum Blood-bank to linear peptides of the protein M of SARS-CoV Urbani / Binding of Control serum LUMC to looped peptides of the protein M of SARS-CoV Urbani / Binding of Control Serum Blood-Bank to Looped peptides of the protein M of SARS-CoV Urbani: unit not given here
# [2] = test system: rabbit serum obtained by immunizing a rabbit with the SARS-CoV strain Frankfurt 1; type: binding; design: Binding of a rabbit serum to linear peptides / Binding of a rabbit serum to looped peptides / Rabbit serum linear peptides / Rabbit serum looped peptides / Binding of a rabbit serum to linear peptides of protein N of SARS-CoV Urbani (Rabbit serum linear peptides) / Binding of a rabbit serum to looped/cyclic peptides of protein N of SARS-CoV Urbani (Rabbit serum looped peptides): unit not given here
# [3] = test system: antibodies in sera from SARS patients (sera 1a, 1b, 2, 6, 37, 62, London, SARS-yellow, SARS-green); type: binding, human; design: Binding of serum 6 to linear peptides of protein X1 of SARS-CoV Urbani / Binding of serum 37 to linear peptides of protein X1 of SARS-CoV Urbani / Binding of serum 6 to looped/cyclic peptide (PEPSCAN-ELISA) / Binding of serum 37 to looped/cyclic peptide (PEPSCAN-ELISA) / Binding of serum 37 to looped/cyclic peptides of protein X1 of SARS-CoV Urbani / Binding of serum 6 to linear peptides of protein X2 / Binding of serum 37 to linear peptides of protein X2 / Binding of serum 37 to looped/cyclic peptides of protein X2 of SARS-CoV Urbani / Binding of serum 6 to linear peptides of protein M of SARS-CoV Urbani / Binding of serum 37 to linear peptides of protein M of SARS-CoV Urbani / Binding of serum 6 to looped/cyclic peptides of protein M of SARS-CoV Urbani / Binding of serum 37 to looped/cyclic peptides of protein M of SARS-CoV Urbani / Binding of serum 6 to linear peptides of protein X3 of SARS-CoV Urbani / Binding of serum 37 to linear peptides of protein X3 of SARS-CoV Urbani / Binding of serum 37 to looped/cyclic peptides of protein X3 of SARS-CoV Urbani / Binding of serum 6 to linear peptides of protein X4 of SARS-CoV Urbani / Binding of serum 37 to linear peptides of protein X4 of SARS-CoV Urbani / Binding of serum 37 to looped/cyclic peptides of protein X4 of SARS-CoV Urbani / Binding of serum 6 to linear peptides of protein X5 of SARS-CoV Urbani / Binding of serum 37 to linear peptides of protein X5 of SARS-CoV Urbani / Binding of serum 37 to looped/cyclic peptides of protein X5 of SARS-CoV Urbani / Binding of serum 6 to linear peptides of protein N of SARS-CoV Urbani / Binding of serum 37 to linear peptides of protein N of SARS-CoV Urbani / Binding of serum 6 to linear peptide (PEPSCAN-ELISA) / Binding of serum 1a to looped/cyclic peptides of protein N of SARS-CoV Urbani / Binding of serum 1b to looped/cyclic peptides of protein N of SARS-CoV Urbani / Binding of serum 2 to looped/cyclic peptides of protein N of SARS-CoV Urbani / Binding of serum 6 to looped/cyclic peptides of protein N of SARS-CoV Urbani / Binding of serum 37 to looped/cyclic peptides of protein N of SARS-CoV Urbani / Binding of serum 62 to looped/cyclic peptides of protein N of SARS-CoV Urbani / Binding of serum London to looped/cyclic peptides of protein N of SARS-CoV Urbani / Binding of serum SARS-green to looped/cyclic peptides of protein N of SARS-CoV Urbani: unit not given here
sequence,measurement,setting,value
VTEGDGISTPKLKED,Binding of Control Serum Blood-Bank to Looped peptides,[1],0.3
same,Binding of Control serum Blood-bank to linear peptides,[1],0.2
same,Binding of Control serum LUMC to linear peptides,[1],0.2
same,Binding of Control serum LUMC to looped peptides,[1],0.3
same,Binding of a rabbit serum to linear peptides,[2],0.0
same,Binding of a rabbit serum to looped peptides,[2],0.4
same,Binding of serum 1a to linear peptides of protein X1 of SARS-CoV Urbani,[3],0.5
same,Binding of serum 1a to looped/cyclic peptides of protein X1 of SARS-CoV Urbani,[3],0.3
same,Binding of serum 1b to linear peptides of protein X1 of SARS-CoV Urbani,[3],0.4
same,Binding of serum 1b to looped/cyclic peptides of protein X1 of SARS-CoV Urbani,[3],0.2
same,Binding of serum 2 to linear peptides of protein X1 of SARS-CoV Urbani,[3],0.3
same,Binding of serum 2 to looped/cyclic peptides of protein X1 of SARS-CoV Urbani,[3],0.1
same,Binding of serum 6 to linear peptides of protein X1 of SARS-CoV Urbani,[3],0.3
same,Binding of serum 6 to looped/cyclic peptides of protein X1 of SARS-CoV Urbani,[3],0.1
same,Binding of serum 37 to linear peptides of protein X1 of SARS-CoV Urbani,[3],0.4
same,Binding of serum 37 to looped/cyclic peptides of protein X1 of SARS-CoV Urbani,[3],0.3
same,Binding of serum 62 to linear peptides of protein X1 of SARS-CoV Urbani,[3],0.3
same,Binding of serum 62 to looped/cyclic peptides of protein X1 of SARS-CoV Urbani,[3],0.3
same,Binding of serum London to linear peptides of protein X1 of SARS-CoV Urbani,[3],0.3
same,Binding of serum London to looped/cyclic peptides of protein X1 of SARS-CoV Urbani,[3],0.2
same,Binding of serum SARS-green to linear peptides of protein X1 of SARS-CoV Urbani,[3],0.1
same,Binding of serum SARS-green to looped/cyclic peptides of protein X1 of SARS-CoV Urbani,[3],0.1
same,Binding of serum SARS-yellow to linear peptides of protein X1 of SARS-CoV Urbani,[3],0.2
same,Binding of serum SARS-yellow to looped/cyclic peptides of protein X1 of SARS-CoV Urbani,[3],0.1
FVASFRLFARTRSMW,Binding of Control Serum Blood-Bank to Looped peptides of the protein M of SARS-CoV Urbani,[1],0.6
same,Binding of Control serum Blood-bank to linear peptides of the protein M of SARS-CoV Urbani,[1],0.9
same,Binding of Control serum LUMC to linear peptides of the protein M of SARS-CoV Urbani,[1],1.0
same,Binding of Control serum LUMC to looped peptides of the protein M of SARS-CoV Urbani,[1],0.7
same,Rabbit serum linear peptides,[2],0.2
same,Rabbit serum looped peptides,[2],0.3
same,Binding of serum 1a to linear peptides of protein M of SARS-CoV Urbani,[3],0.9
same,Binding of serum 1b to linear peptides of protein M of SARS-CoV Urbani,[3],1.1
same,Binding of serum 2 to linear peptides of protein M of SARS-CoV Urbani,[3],0.7
same,Binding of serum 6 to linear peptides of protein M of SARS-CoV Urbani,[3],1.3
same,Binding of serum 37 to linear peptides of protein M of SARS-CoV Urbani,[3],0.6
same,Binding of serum 62 to linear peptides of protein M of SARS-CoV Urbani,[3],0.6
same,Binding of serum London to linear peptides of protein M of SARS-CoV Urbani,[3],0.9
same,Binding of serum SARS-green to linear peptides of protein M of SARS-CoV Urbani,[3],0.7
same,Binding of serum SARS-yellow to linear peptides of protein M of SARS-CoV Urbani,[3],0.3
same,"Recognition of the peptide by sera of SARS-CoV infected individuals, and form (linear, looped/cyclic) in which it is recognized",[3],recognized in looped/cyclic form
KVLPFHRWHTMVQTC,Binding of Control Serum Blood-Bank to Looped peptides,[1],0.6
same,Binding of Control serum Blood-bank to linear peptides,[1],0.6
same,Binding of Control serum LUMC to linear peptides,[1],0.4
same,Binding of Control serum LUMC to looped peptides,[1],0.5
same,Rabbit serum linear peptides,[2],0.6
same,Rabbit serum looped peptides,[2],0.5
same,Binding of serum 1a to linear peptides of protein X5 of SARS-CoV Urbani,[3],0.9
same,Binding of serum 1a to looped/cyclic peptides of protein X5 of SARS-CoV Urbani,[3],0.7
same,Binding of serum 1b to linear peptides of protein X5 of SARS-CoV Urbani,[3],0.6
same,Binding of serum 1b to looped/cyclic peptides of protein X5 of SARS-CoV Urbani,[3],0.7
same,Binding of serum 2 to linear peptides of protein X5 of SARS-CoV Urbani,[3],0.7
same,Binding of serum 2 to looped/cyclic peptides of protein X5 of SARS-CoV Urbani,[3],0.6
same,Binding of serum 6 to linear peptides of protein X5 of SARS-CoV Urbani,[3],0.5
same,Binding of serum 6 to looped/cyclic peptides of protein X5 of SARS-CoV Urbani,[3],0.7
same,Binding of serum 37 to linear peptides of protein X5 of SARS-CoV Urbani,[3],0.7
same,Binding of serum 37 to looped/cyclic peptides of protein X5 of SARS-CoV Urbani,[3],0.6
same,Binding of serum 62 to linear peptides of protein X5 of SARS-CoV Urbani,[3],0.7
same,Binding of serum 62 to looped/cyclic peptides of protein X5 of SARS-CoV Urbani,[3],0.6
same,Binding of serum London to linear peptides of protein X5 of SARS-CoV Urbani,[3],1.2
same,Binding of serum London to looped/cyclic peptides of protein X5 of SARS-CoV Urbani,[3],0.4
same,Binding of serum SARS-green to linear peptides of protein X5 of SARS-CoV Urbani,[3],0.6
same,Binding of serum SARS-green to looped/cyclic peptides of protein X5 of SARS-CoV Urbani,[3],0.4
same,Binding of serum SARS-yellow to linear peptides of protein X5 of SARS-CoV Urbani,[3],0.2
same,Binding of serum SARS-yellow to looped/cyclic peptides of protein X5 of SARS-CoV Urbani,[3],0.3
VTIYSHLLLVAAGME,Binding of Control Serum Blood-Bank to Looped peptides,[1],0.4
same,Binding of Control serum Blood-bank to linear peptides,[1],0.5
same,Binding of Control serum LUMC to linear peptides,[1],0.5
same,Binding of Control serum LUMC to looped peptides,[1],0.6
same,Binding of a rabbit serum to linear peptides,[2],0.1
same,Binding of a rabbit serum to looped peptides,[2],0.5
same,Binding of serum 1a to linear peptides of protein X1 of SARS-CoV Urbani,[3],0.8
same,Binding of serum 1a to looped/cyclic peptide (PEPSCAN-ELISA),[3],0.5
same,Binding of serum 1b to linear peptides of protein X1 of SARS-CoV Urbani,[3],0.7
same,Binding of serum 1b to looped/cyclic peptide (PEPSCAN-ELISA),[3],0.4
same,Binding of serum 2 to linear peptides of protein X1 of SARS-CoV Urbani,[3],0.5
same,Binding of serum 2 to looped/cyclic peptide (PEPSCAN-ELISA),[3],0.5
same,Binding of serum 6 to linear peptides of protein X1 of SARS-CoV Urbani,[3],0.4
same,Binding of serum 6 to looped/cyclic peptide (PEPSCAN-ELISA),[3],0.3
same,Binding of serum 37 to linear peptides of protein X1 of SARS-CoV Urbani,[3],0.6
same,Binding of serum 37 to looped/cyclic peptide (PEPSCAN-ELISA),[3],0.5
same,Binding of serum 62 to linear peptides of protein X1 of SARS-CoV Urbani,[3],0.6
same,Binding of serum 62 to looped/cyclic peptide (PEPSCAN-ELISA),[3],0.4
same,Binding of serum London to linear peptides of protein X1 of SARS-CoV Urbani,[3],0.3
same,Binding of serum London to looped/cyclic peptide (PEPSCAN-ELISA),[3],0.2
same,Binding of serum SARS-green to linear peptides of protein X1 of SARS-CoV Urbani,[3],0.3
same,Binding of serum SARS-green to looped/cyclic peptide (PEPSCAN-ELISA),[3],0.3
same,Binding of serum SARS-yellow to linear peptides of protein X1 of SARS-CoV Urbani,[3],0.6
same,Binding of serum SARS-yellow to looped/cyclic peptide (PEPSCAN-ELISA),[3],0.3
IVAALVFLILCFTIK,Binding of Control Serum Blood-Bank to Looped peptides,[1],0.8
same,Binding of Control serum Blood-bank to linear peptides,[1],0.6
same,Binding of Control serum LUMC to linear peptides,[1],0.5
same,Binding of Control serum LUMC to looped peptides,[1],0.7
same,Rabbit serum linear peptides,[2],0.4
same,Rabbit serum looped peptides,[2],0.6
same,Binding of serum 1a to linear peptides of protein X4 of SARS-CoV Urbani,[3],0.6
same,Binding of serum 1a to looped/cyclic peptides of protein X4 of SARS-CoV Urbani,[3],0.7
same,Binding of serum 1b to linear peptides of protein X4 of SARS-CoV Urbani,[3],0.6
same,Binding of serum 1b to looped/cyclic peptides of protein X4 of SARS-CoV Urbani,[3],0.4
same,Binding of serum 2 to linear peptides of protein X4 of SARS-CoV Urbani,[3],0.4
same,Binding of serum 2 to looped/cyclic peptides of protein X4 of SARS-CoV Urbani,[3],0.6
same,Binding of serum 6 to linear peptides of protein X4 of SARS-CoV Urbani,[3],0.5
same,Binding of serum 6 to looped/cyclic peptides of protein X4 of SARS-CoV Urbani,[3],1.4
same,Binding of serum 37 to linear peptides of protein X4 of SARS-CoV Urbani,[3],0.7
same,Binding of serum 37 to looped/cyclic peptides of protein X4 of SARS-CoV Urbani,[3],0.7
same,Binding of serum 62 to linear peptides of protein X4 of SARS-CoV Urbani,[3],0.7
same,Binding of serum 62 to looped/cyclic peptides of protein X4 of SARS-CoV Urbani,[3],0.7
same,Binding of serum London to linear peptides of protein X4 of SARS-CoV Urbani,[3],0.7
same,Binding of serum London to looped/cyclic peptides of protein X4 of SARS-CoV Urbani,[3],3.0
same,Binding of serum SARS-green to linear peptides of protein X4 of SARS-CoV Urbani,[3],0.5
same,Binding of serum SARS-green to looped/cyclic peptides of protein X4 of SARS-CoV Urbani,[3],0.5
same,Binding of serum SARS-yellow to linear peptides of protein X4 of SARS-CoV Urbani,[3],0.6
same,Binding of serum SARS-yellow to looped/cyclic peptides of protein X4 of SARS-CoV Urbani,[3],0.7
